Laboratory results from patent US20060013796A1, “Hair and/or scalp treatment composition” (priority 2002, published 2006).

Assays:
[1] = system: Malassezia furfur CBS 7019; experiment: Microtitre plate cross-assay, Fractional Inhibitory Concentration (FIC) with conventional anti-dandruff/anti-fungal agents; type: cell-based; settings: M. furfur CBS 7019; for FIC interpretation with Octopirox / FIC values with Octopirox: combination with Octopirox; for FIC values with Octopirox / FIC values with climbazole / FIC values with zinc pyrithione (ZnPTO): triplicate; for FIC interpretation with climbazole / FIC values with climbazole: combination with climbazole; for FIC interpretation with zinc pyrithione (ZnPTO) / FIC values with zinc pyrithione (ZnPTO): combination with zinc pyrithione (ZnPTO)
Experimental: FIC values are for activity against M.furfur, such as CBS 7019, and are calculated in ways well-known in the art.
(§1) Studies into anti-microbial action were performed using a microtitre plate cross-assay in triplicate against the type strain Malassezia furfur CBS 7019. The Fractional Inhibitory Concentration (FIC), the concentration of biocide in a mixture of biocides that inhibits growth, was determined for natural oils and a number of terpenoid components with the conventional anti-dandruff/anti-fungal agents.
The definition of synergy is a combination of biocides in which the effect is greater than the sum of the expected effects of the individual components.

[2] = system: Malassezia furfur CBS 7019; experiment: MIC of oils and their components, microtitre plate assay; type: cell-based; settings: substance alone
Experimental: as §1

| MIC values for oils and their components [2] [%] | SMILES | FIC interpretation with Octopirox [1] | FIC values with Octopirox [1] | FIC interpretation with climbazole [1] | FIC values with climbazole [1] | FIC interpretation with zinc pyrithione (ZnPTO) [1] | FIC values with zinc pyrithione (ZnPTO) [1] |
| --- | --- | --- | --- | --- | --- | --- | --- |
| >8 | C=C1C2CCC(C2)C1(C)C (centres unmarked) [Camphene] |  |  |  |  |  |  |
| 1 | CC12CCC(CC1)C(C)(C)O2 [Cineole] |  |  |  |  |  |  |
| 0.01 | C=CCc1ccc(O)c(OC)c1 [Eugenol, eugenol] | synergy (<1 synergy) | 0.567 | synergy (<1 synergy) | 0.56 | synergy (<1 synergy) | 0.625 |
| >8 | C=C(C)[C@H]1CC=C(C)CC1 [Limonene] | antagonistic (>1 antagonistic) | 2 | antagonistic (>1 antagonistic) | 2 | antagonistic (>1 antagonistic) | 1.5 |
| 0.01 | C=CC(C)(O)CCC=C(C)C (centres unmarked) [Linalool, linalool] | antagonistic (>1 antagonistic) | 2 |  | 0.417 | synergy (<1 synergy) | 0.625 |
|  | CC1=CCC(O)(C(C)C)CC1 (centres unmarked) [terpinen-4-ol] | antagonistic (>1 antagonistic) | 2 |  | 0.37 | synergy (<1 synergy) | 0.83 |
| 0.3 | CC1=CCC2CC1C2(C)C (stereo not drawn) [α-pinene] | antagonistic (>1 antagonistic) | 2 | antagonistic (>1 antagonistic) | 2 | antagonistic (>1 antagonistic) | 1.42 |
| 0.02 | CC1=CCC(C(C)(C)O)CC1 (stereo not drawn) [α-terpineol, alpha-terpineol] |  | 2 | synergy (<1 synergy) | 0.625 | antagonistic (>1 antagonistic) | 2 |

| SMILES | MIC values for oils and their components [2] [%] | FIC interpretation with Octopirox [1] | FIC values with Octopirox [1] | FIC interpretation with climbazole [1] | FIC values with climbazole [1] | FIC interpretation with zinc pyrithione (ZnPTO) [1] | FIC values with zinc pyrithione (ZnPTO) [1] |
| --- | --- | --- | --- | --- | --- | --- | --- |
| C=CCc1ccc(OC)cc1 [4-allylanisole] | 0.25 | antagonistic (>1 antagonistic) | 2 | antagonistic (>1 antagonistic) | 2 | synergy (<1 synergy) | 0.725 |
